{
  "source": "patent US20180228811A1",
  "about": "“GDNF INDUCTION FOR THE TREATMENT OF RETINAL DISORDERS” (THE SCHEPENS EYE RESEARCH INSTITUTE, INC., priority 2014, published 2018)",
  "key": {"GDNF [1]": {"tested_on": "GDNF", "test": "GDNF induction in mouse eyecups differentiated from induced pluripotent stem cells (ELISA)", "format": "cell-based", "experimental": "GDNF induction […] was assessed using three retinal-specific cell systems: ARPE19, as a model for human retinal pigment epithelium; human retinal progenitor cells (hRPC), as a substitute for human retinal neurons/glia; and mouse eyecups, differentiated from induced pluripotent stem cells. ARPE19 cells are described in Dunn et al., Exp. Eye Res. 62: 155-169, 1996. To study GDNF induction in a human retinal pigment epithelium cell line, ARPE19, thawed ARPE19 cells (passage 33, ATCC) were plated on fibronectin (Akron)-coated plates (Nunc) in stimulation medium at a density of 10 k cells/sq.cm. The flasks were incubated at standard conditions: 37° C., 5% CO2, 100% humidity. Cells were plated 24 hours prior to Compound I treatment and were grown in Ultraculture medium (Lonza), supplemented with 1×MEM NEAA (Gibco), 1× L-glutamine (Gibco), 1× Antibiotic/antimycotic (Gibco), 2 ng/ml bFGF (Peprotech), 1 ng/ml EGF (Peprotech). […]\nTo study GDNF induction in retina-like tissue structures, mouse eyecups were differentiated from wild-type mouse induced pluripotent stem cells according to the protocol described previously (Eiraku, M. & Sasai, Y., Nat Protoc 7, 69-79 (2012)). […] The results of dose-dependent GDNF induction were analyzed by ANOVA (p<0.05)."}, "GDNF [2]": {"tested_on": "GDNF", "test": "GDNF protein induction in ARPE19 cells (ELISA)", "format": "cell-based, human", "experimental": "(§1) GDNF induction […] was assessed using three retinal-specific cell systems: ARPE19, as a model for human retinal pigment epithelium; human retinal progenitor cells (hRPC), as a substitute for human retinal neurons/glia; and mouse eyecups, differentiated from induced pluripotent stem cells. ARPE19 cells are described in Dunn et al., Exp. Eye Res. 62: 155-169, 1996. To study GDNF induction in a human retinal pigment epithelium cell line, ARPE19, thawed ARPE19 cells (passage 33, ATCC) were plated on fibronectin (Akron)-coated plates (Nunc) in stimulation medium at a density of 10 k cells/sq.cm. The flasks were incubated at standard conditions: 37° C., 5% CO2, 100% humidity. Cells were plated 24 hours prior to Compound I treatment and were grown in Ultraculture medium (Lonza), supplemented with 1×MEM NEAA (Gibco), 1× L-glutamine (Gibco), 1× Antibiotic/antimycotic (Gibco), 2 ng/ml bFGF (Peprotech), 1 ng/ml EGF (Peprotech). For qPCR analysis, the experiments were performed in 35 mm Petri dishes in 2 ml of medium with Compound I concentration of 100 nM (DMSO-based solution). Total mRNA was isolated at 0, 15, 30, 60, 120, 240 minutes post stimulation. For protein expression determination by ELISA, the experiments were performed in 96 well plates in 100 ul of medium with each condition (concentrations ranging from 0 to 10 uM) reproduced in 3 wells. For ELISA analysis, plates were removed from out of incubator 24 hours post stimulation and freeze-thawed followed by CHAPS lysis buffer treatment for total […] extraction. The ELISA analysis for GDNF was performed using GDNF DuoSet kit (R&D systems) using manufacturer's instructions."}, "GDNF [3]": {"tested_on": "GDNF", "test": "GDNF induction by Compound I aqueous solution in wild-type mice", "format": "in vivo, mouse", "settings": "3 hours; for GDNF mRNA induction compared to vehicle-treated control: wild type mice; for GDNF protein upregulation compared to untreated control: wildtype mice, vehicle 1.5 fold", "experimental": "(§2) All animal procedures were performed under general (intraperitoneal ketamine/xylazine) and topical (proparacaine drops) anesthesia. Tropicamide was applied for pupil dilation. After injection, the eye was treated with antibiotic ointment (Bacitracin-Neomycin-Polymyxin). The same procedures were applied to control eyes.\n(§3) To study GDNF induction by Compound I aqueous solution, 1 ul of 10 uM (n=5) or 100 uM (n=5) water-based Compound I or 1 ul of Vehicle (n=5) was administered intravitreally using beveled glass needle, connected to a Hamilton syringe through polyethylene tubing. During the injection, corneal paracenthesis was performed to reduce intraocular pressure. Compound I was injected into 4-week old wildtype (C57/Bl6, Jackson labs) and rhodopsin knockout (Humphries et al., Nat. Genet. 15, 216-219 (1997)).\n(§4) Three hours after the injection animals were euthanized using CO2, then the death was confirmed by cervical dislocation. The treated and untreated eyes were enucleated and placed in 250 ul of chilled RNAlater buffer (Qiagen) and stored at 4° C. Later, eyes were excised and total neural retina with retinal pigment epithelium were collected into 400 ul of Lysis buffer (Qiagen RNeasy kit) with 5 mM beta-mercaptoethanol. Total RNA was isolated using RNeasy kit (Qiagen) and eluted with 100 ul of Ultrapure water (Life technologies). All flow through from RNA isolation (˜2.4 ml) was collected and mixed with 10 ml of ice-cold (−20° C.) acetone for protein precipitation. The protein was precipitated at −20° C. for 30 minutes, then pelleted at 3500 rpm for 20 min. Pellets were washed once with 100% ethanol, then reconstituted with 300 ul of RIPA buffer with 0.2 mM 4-benzenesulfonyl fluoride hydrochloride (Tocris). mRNA and protein expression were assessed by qPCR and Western Blot and normalized to GAPDH and βActin. The statistical analysis was performed using a T-test (p<0.05) with Bonferroni post-hoc test."}, "GDNF [4]": {"tested_on": "GDNF", "test": "GDNF induction in human retinal progenitor cells (hRPC) (ELISA)", "format": "cell-based", "experimental": "as §1\nExperiments with human retinal progenitor cell line (hRPC) were performed in a similar manner (Baranov et al., Tissue Eng Part A 20, 140124133442001-1475 (2014)): hRPC were thawed and plated (passage 15) in 96 well plates using the same conditions and density as described above for ARPE19. The cell treatment, sample collection and readout were performed using the same protocol. […]"}, "GDNF [5]": {"tested_on": "GDNF", "test": "GDNF induction by Compound I aqueous solution in rhodopsin knockout mice", "format": "in vivo, mouse", "settings": "3 hours; for GDNF protein upregulation: vehicle 1.2 fold", "experimental": "as §2, §3, §4"}},
  "note": "“And” between values parts separate entries of the source, which are not always exact repeats. Equal entries are not always repeated.",
  "data": [
    {"smiles": "COc1cc2c(cc1S(=O)(=O)c1ccc(OCc3ccc(Cl)cc3)cc1)CCN(C)CC2", "note": "[Compound I, 7-[4-(4-chloro-benzyloxy)-benzenesulfonyl]-8-methoxy-3-methyl-2,3,4,5-tetrahydro-1H-3-benzazepine]", "values": [
      {"measurement": "GDNF induction", "setting": "GDNF [1]", "result": "More than 2 fold"},
      {"measurement": "GDNF induction, result in words", "setting": "GDNF [1]; 0 to 10 uM", "result": "Significant dose-dependent GDNF induction"},
      {"measurement": "GDNF induction", "setting": "GDNF [2]; ARPE19", "result": "More than 2 fold"},
      {"measurement": "GDNF induction, result in words", "setting": "GDNF [2]; ARPE19, 0 to 10 uM", "result": "Significant dose-dependent GDNF induction"},
      {"measurement": "concentration of Compound I at which GDNF was upregulated", "setting": "GDNF [2]; ARPE19, ELISA, FIG. 1C", "result": 3, "unit": "µM"},
      {"measurement": "increase of GDNF protein levels in vitro", "setting": "GDNF [2]; in vitro, cell system not stated (mRNA was measured in ARPE19 only)", "result": 1.8, "unit": "fold"},
      {"measurement": "GDNF mRNA induction compared to vehicle-treated control", "setting": "GDNF [3]; 1 ul of 10 uM solution intravitreally", "result": 1.3, "unit": "fold"},
      {"measurement": "GDNF mRNA induction compared to vehicle-treated control", "setting": "GDNF [3]; 1 ul of 100 uM solution intravitreally", "result": 1.9, "unit": "fold"},
      {"measurement": "GDNF protein upregulation compared to untreated control", "setting": "GDNF [3]; 10 uM solution intravitreally", "result": 2.3, "unit": "fold"},
      {"measurement": "GDNF protein upregulation compared to untreated control", "setting": "GDNF [3]; 100 uM solution intravitreally", "result": 2.3, "unit": "fold"},
      {"measurement": "GDNF induction", "setting": "GDNF [4]", "result": "More than 2 fold"},
      {"measurement": "GDNF induction, result in words", "setting": "GDNF [4]; 0 to 10 uM", "result": "Significant dose-dependent GDNF induction"},
      {"measurement": "concentration of Compound I at which GDNF was upregulated", "setting": "GDNF [4]; ELISA, FIG. 1B", "result": 1, "unit": "µM"},
      {"measurement": "GDNF mRNA induction compared to vehicle-treated control", "setting": "GDNF [5]; 10 uM solution intravitreally", "result": 1.8, "unit": "fold"},
      {"measurement": "GDNF protein upregulation", "setting": "GDNF [5]; 10 uM solution intravitreally", "result": "> 2 fold and 2.8 fold"},
      {"measurement": "GDNF mRNA induction compared to vehicle-treated control", "setting": "GDNF [5]; 100 uM solution intravitreally", "result": 1.7, "unit": "fold"},
      {"measurement": "GDNF protein upregulation", "setting": "GDNF [5]; 100 uM solution intravitreally", "result": "> 2 fold and 2.6 fold"}
    ]}
  ]
}
